Source: BindingDB's records for doi:10.1016/s0960-894x(00)00170-0 (Merck Research Laboratories, 2000)

Target: Thrombin (Homo sapiens)
Assay: The compound was tested for its ability to inhibit thrombin.

Cc1nc(N)ccc1CNC(=O)Cn1c(C)cc2c(c1=O)NC(=O)[C@](C)(CC(C)C)C2 [N-(6-Amino-2-methyl-pyridin-3-ylmethyl)-2-((R)-3-isobutyl-3,6-dimethyl-2,8-dioxo-2,3,4,8-tetrahydro-1H-[1,7]naphthyridin-7-yl)-acetamide]
Ki: 0.24 nM
